Test results: ChEMBL document CHEMBL5226371, “Hyperhubeins A-I, Bioactive Sesquiterpenes with Diverse Skeletons from Hypericum hubeiense” (J Nat Prod, 2023)
Active and inactive are the calls of the source. The calls are words filed in the database; no cut-off is given here.

What was measured:
[1] = test system: PC-12; assay: Neuroprotective activity against H2O2-induced cell injury in rat PC-12 cells assessed as increase in cell survival at 10 uM preincubated with compound for 24 hrs followed by H2O2 addition and measured after 24 hrs by MTT assay; assay type: functional, cell-based; conditions: time 48.0 hrs
[2] = Inhibition of NO production in LPS-induced mouse BV-2 cells incubated for 24 hrs by Griess reagent based microplate reader analysis; assay type: functional, cell-based; conditions: BV-2, 24 h
[3] = test system: BV-2; assay: Cytotoxicity against mouse BV-2 cells assessed as reduction in cell viability by MTT-based colorimetric method; assay type: toxicity
[4] = test system: BV-2; assay: Anti-neuroinflammatory activity in mouse BV-2 cells assessed as reduction in LPS-induced TLR-4 expression at 10 uM by Western blot analysis; assay type: functional, cell-based
[5] = test system: BV-2; assay: Anti-neuroinflammatory activity in mouse BV-2 cells assessed as reduction in LPS-induced iNOS expression at 10 uM by Western blot analysis; assay type: functional, cell-based
[6] = test system: BV-2; assay: Anti-neuroinflammatory activity in mouse BV-2 cells assessed as reduction in LPS-induced COX-2 expression at 10 uM by Western blot analysis; assay type: functional, cell-based
[7] = test system: BV-2; assay: Anti-neuroinflammatory activity in LPS-stimulated mouse BV-2 cells assessed as reduction in ratio of phosphorylated NF-kappaB to NFkappaB at 10 uM by Western blot analysis; assay type: functional, cell-based

C=C1CC[C@H]2O[C@]2(C)CC[C@@H]2[C@@H]1CC2(C)C
Activity [1]: Active

C=C(C)[C@@H]1CCC2=C[C@H](OC)C[C@@H](C)[C@]2(C)C1
Activity [1]: Active

C=C1CCC[C@H]2[C@@H]1[C@@H](C(C)=O)C[C@H]2C(C)C
Activity [1]: Active
IC50 [2]: 5.91 µM
Activity [3]: Non-Toxic

CC1=CC[C@H](O)[C@@]2(C)CC[C@H](C(C)(C)O[C@@H]3O[C@H](CO)[C@@H](O)[C@H](O)[C@H]3O)C[C@@H]12
Activity [1]: Active

O=c1c(O)c(-c2ccc(O)c(O)c2)oc2cc(O)cc(O)c12 [QUERCETIN]
IC50 [2]: 6.5 µM

C=C(C)[C@@H]1CC[C@@]2(C)[C@H](O)CC[C@@](C)(O)[C@@H]2C1
Activity [1]: Active

C=C(C)[C@H]1CC[C@]2(C)O[C@H]2CC[C@@]2(C)O[C@@H]2C1
Activity [1]: Active

C=C1CCC[C@H]2[C@@H]1[C@H](C(C)=O)C[C@H]2C(C)C
Activity [1]: Active
IC50 [2]: 6.81 µM
Activity [3]: Non-Toxic

C=C1CCC(=O)[C@]2(C)CC[C@@H](C(C)C)[C@H](O)[C@@H]12
IC50 [2]: 4.92 µM
Activity [3]: Non-Toxic

C=C(C)[C@@H]1CC(=O)C2=CC(=O)C[C@@H](C)[C@]2(C)C1
IC50 [2]: 6.23 µM
Activity [3]: Non-Toxic
Activity [4]: Active
Activity [5]: Active
Activity [6]: Active
Activity [7]: Active

C=C(CO[C@@H]1O[C@H](CO)[C@@H](O)[C@H](O)[C@H]1O)[C@@H]1CC[C@@]2(O)CCC[C@@H](C)[C@]2(C)C1
Activity [1]: Active
